# Tests used:
# CD22 (Siglec-2) [1] = target: T1, CD22 (Siglec-2) (Homo sapiens, UniProt P20273); settings: Table II; affinity to CD22, BPC NeuAc = 1; cited from earlier work
# T1 sequence (P20273 20-847): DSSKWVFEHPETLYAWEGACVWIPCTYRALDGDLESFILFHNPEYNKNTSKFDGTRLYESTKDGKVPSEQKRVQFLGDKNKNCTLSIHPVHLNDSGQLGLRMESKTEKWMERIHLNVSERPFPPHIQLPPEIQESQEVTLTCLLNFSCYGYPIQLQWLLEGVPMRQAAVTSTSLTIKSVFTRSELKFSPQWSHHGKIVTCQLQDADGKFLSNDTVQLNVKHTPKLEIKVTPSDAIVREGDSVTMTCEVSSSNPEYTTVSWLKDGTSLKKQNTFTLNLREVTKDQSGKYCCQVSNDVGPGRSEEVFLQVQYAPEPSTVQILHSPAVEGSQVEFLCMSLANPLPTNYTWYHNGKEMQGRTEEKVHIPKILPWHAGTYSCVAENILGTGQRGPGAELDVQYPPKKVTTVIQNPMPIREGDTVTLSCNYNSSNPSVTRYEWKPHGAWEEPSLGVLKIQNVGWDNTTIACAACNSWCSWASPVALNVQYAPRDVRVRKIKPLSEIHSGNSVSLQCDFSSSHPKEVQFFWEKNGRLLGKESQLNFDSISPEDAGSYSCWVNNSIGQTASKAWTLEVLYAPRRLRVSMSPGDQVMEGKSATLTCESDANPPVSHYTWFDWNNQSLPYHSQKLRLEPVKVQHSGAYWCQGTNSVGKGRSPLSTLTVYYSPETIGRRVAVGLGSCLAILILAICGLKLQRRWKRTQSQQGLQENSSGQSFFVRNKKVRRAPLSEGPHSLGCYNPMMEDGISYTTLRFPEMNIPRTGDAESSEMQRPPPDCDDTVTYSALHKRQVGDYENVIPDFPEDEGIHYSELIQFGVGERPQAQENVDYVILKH
# CD22 (Siglec-2) [2] = target: T1, CD22 (Siglec-2); assay: New assay: displacement of biotin conjugate 35 from sialidase-treated Daudi cells, measured by FACS; format: binding; design: endogenous in cells; host or cells: Daudi (human B cell lymphoma line); settings: Table II, IC50 values converted into rIP, BPC NeuAc = 1, 2 μmolar substance 35
# Method: In order to be able to determine the affinity of the novel derivatives to CD22, a new assay was developed. For this assay, compound 35 (conjugate of a sialic acid derivative of the formula (I) and biotin) was prepared.
# To determine the affinity of the compound of the formula (I), approximately 2×10^8 cells of the human B cell lymphoma line “Daudi” were incubated with sialidase (A. ureafaciens) for 1 h at 37° C. Subsequently, the enzyme was blocked with 1.5 mM 2,3-dehydroNeu5Ac and the cells were washed twice with PBS. Batches of 1-2×10^6 cells were transferred to sample vials and incubated on ice for 15 min with serial concentrations (10-fold dilutions) of the substance to be measured (inhibitor) and then for 20 min with 2 μmolar substance 35. The reaction volume was 50 μl. After washing with PBS, the sample was incubated for 15 min with Streptavidin-PE in the dark, then washed and the amount of substance 35 bound via Streptavadin-PE was measured by FACS. For the determination of 0% displacement of substance 35, cells without inhibitor were measured. For the determination of 100% displacement, cells were measured without substance 35 and without inhibitor. 4 substances and one reference substance were measured per assay. The IC50 values determined in each assay were subsequently converted into rIP values. For this purpose, substance 46 served as reference. […]
SMILES,rIP (Literature assay) (CD22 (Siglec-2) [1]),rIP (New assay) (CD22 (Siglec-2) [2])
COC(=O)CCCCCO[C@@H]1O[C@H](CO)[C@@H](O[C@@H]2O[C@H](CO[C@]3(C(=O)[O-])C[C@H](O)[C@@H](NC(C)=O)[C@H]([C@H](O)[C@H](O)CNC(=O)c4ccc(-c5ccccc5)cc4)O3)[C@H](O)[C@H](O)[C@H]2O)[C@H](O)[C@H]1NC(C)=O.[Na+] [BPC NeuAc- LN],15.9,–
CO[C@]1(C(=O)[O-])C[C@H](O)[C@@H](NC(C)=O)[C@H]([C@H](O)[C@H](O)CNC(=O)c2ccc(-c3ccccc3)cc2)O1.[Na+] [BPC NeuAc],1,1

# Source: patent publication US9539336B2, “Sialic acid derivatives” (priority 2012, dated 2017)
